Results on 2 compounds are retold here after patent EP0169787B1, “Use of oligonucleotides bonded to an intercalating agent as drugs” (priority 1984, dated 1986).

One data set relates to cellules CV1. The class given is cell-based, singe. On the procedure: La dilution de virus dans un tampon phosphate isotonique a été choisie de façon […] cultures témoins environ 75% de destruction cellulaire (75% d'effet cytopathogène) après 3 jours d'incubation. Après 1 heure de contact à 37°C, l'inocu- lum […] du même milieu contenant ou non les produits à étudier sont ajoutés. […] Des cultures de cellules non infectées par le virus et traitées avec les produits ont été aussi examinées pour […] cytotoxiques éventuels. Les pourcentages de destruction cellulaire dans les cultures infectées (effet cytopathogène) et dans les cultures non infectées (effet cytotoxique des produits) sont indiqués dans le tableau V.

The next data set has as its system virus SV40. As to the kind of experiment: Inhibition of SV40 multiplication (cytopathogenic effect) in CV1 cell cultures. The note with it: 3 jours, témoins 75. The class given is cell-based.
The next data set has as its system A/Victoria (H3N2). The class given is cell-based. The note with it: cellules MDCK; for Pourcentage de destruction cellulaire Cultures infectées (effet cytopathogène) par A/Victoria (H3N2): 3 jours.

Each structure is given as a SMILES string. Read-outs that look alike come from different tables or passages of the source.

`COc1ccc2nc3cc(Cl)ccc3c(NCCCCCCO)c2c1` [HO(CH2)6 Z", méthoxy-2-chloro-6(ω-hydroxyhexylamino)-9 acridine]: the “effet cytotoxique / toxicité vis-à-vis des cellules saines” value in the data set on cellules CV1 is listed as “trop important”.

As for `COc1ccc2nc3cc(Cl)ccc3c(NCCCCCO)c2c1` [Acr(CH2)5OH, méthoxy-2 chloro-6 (ω-hydroxypentyl-amino)-9 acridine], the “Pourcentage de destruction cellulaire Cultures infectées par SV40 (effet cytopathogène)” value in the data set with virus SV40 (0,5 µg/ml) is listed as 50%; with virus SV40 (0,5 µg/ml, listed as Acr(CH2)50H) it was “n'exerce pas d'effet inhibiteur significatif”; in the data set with virus SV40 (0,25 µg/ml) it was 75%; in the data set on virus SV40 (0,25 µg/ml, listed as Acr(CH2)50H) it was “n'exerce pas d'effet inhibiteur significatif”; with virus SV40 (1,0 µg/ml), 75%; in the data set on virus SV40 (2,0 µg/ml) it was 100%. Moreover, the “Pourcentage de destruction cellulaire Cultures infectées (effet cytopathogène) par A/Victoria (H3N2)” value in the data set with A/Victoria (H3N2) (0,5 µg/ml), with A/Victoria (H3N2) (0,25 µg/ml) and in the data set on A/Victoria (H3N2) (1,0 µg/ml) was 100% throughout. For the same compound, in the data set with A/Victoria (H3N2) (result in words), the “effet inhibiteur de la multiplication du virus grippal A/Victoria (H3N2)” value was “dépourvu d'activité”.
